Several values for one entry are separate records, joined by “and”; a condition that tells them apart may be missing. Equal entries are not always repeated.
What was measured:
Format in all cases: functional, Homo sapiens
Set-up in all cases: dose or concentration left out as unconfirmed
[1] = test system: Colon cancer organoid; assay: Identification of compartment-specific drug sensitivities in O06 CRC organoid-stroma F06 CAF co-cultures. Organoid is transduced with Lucferase2-P2A-EGFP lentivirus, fibroblast with Renilla-dsRed lentivirus. Dual-Glo Luciferase assay is used to report viability data.
[2] = test system: Colon cancer organoid; assay: Identification of compartment-specific drug sensitivities in O14 CRC organoid-stroma F14 CAF co-cultures. Organoid is transduced with Lucferase2-P2A-EGFP lentivirus, fibroblast with Renilla-dsRed lentivirus. Dual-Glo Luciferase assay is used to report viability data.
[3] = test system: Colon cancer organoid; assay: Identification of compartment-specific drug sensitivities in O20 CRC organoid-stroma F20 CAF co-cultures. Organoid is transduced with Lucferase2-P2A-EGFP lentivirus, fibroblast with Renilla-dsRed lentivirus. Dual-Glo Luciferase assay is used to report viability data.
[4] = Transduced with Lucferase2-P2A-EGFP lentivirus
[5] = Transduced with Renilla-dsRed lentivirus

Row | SMILES | Cell Viability [1, 4] | Cell Viability [1, 5] | Cell Viability [2, 4] | Cell Viability [2, 5] | Cell Viability [3, 4] | Cell Viability [3, 5]
1 | O=C(c1ccc(C(=O)N2CCC(N3CCCC3)CC2)c(Nc2ccccc2)c1)N1CCC(N2CCCC2)CC1 | 108.091% | 96.0319% | 131.975% | 97.2232% | 130.421% | 96.2949%
2 | CC(C)N(CCCNC(=O)Nc1ccc(C(C)(C)C)cc1)C[C@H]1O[C@@H](n2cc(Br)c3c(N)ncnc32)[C@H](O)[C@@H]1O | 62.4885% | 97.8527% | 74.0278% | 90.8718% | 59.6009% | 110.156%
3 | COc1cc2c(cc1OCCCN1CCCC1)N=C(N)C21CCC1 | 84.9948% | 83.704% | 87.6121% | 63.8775% | 76.3645% | 100.254%
4 | CCOC(=O)CCNc1cc(N2CCc3ccccc3CC2)nc(-c2ccccn2)n1 | 103.039% | 116.98% | 102.142% | 98.2806% | 101.525% | 127.032%
5 | O=C(O)CNC(=O)c1c(O)c2ccccc2n(Cc2ccccc2)c1=O | 145.736% | 124.036% | 107.659% | 95.196% | 96.6263% | 149.859%
6 | Cc1sc2c(c1C)C(c1ccc(Cl)cc1)=N[C@H](CC(=O)OC(C)(C)C)c1nnc(C)n1-2 | 107.283% | 109.974% | 146.34% | 95.1093% | 99.6993% | 113.657%
7 | CCCc1cc(C)[nH]c(=O)c1CNC(=O)c1cc(-c2ccc(N3CCN(C(C)C)CC3)nc2)cc2c1cnn2C(C)C | 81.1391% | 118.175% | 84.6561% | 97.5786% | 59.2451% | 157.842%
8 | COc1ccc(CCc2nc3cc(-c4c(C)noc4C)ccc3n2C[C@H](C)N2CCOCC2)cc1Cl | 78.634% | 97.126% | 147.618% | 121.055% | 96.1019% | 133.846%
9 | CCCOc1ccn2c(C(C)=O)cc(-c3ccccc3S(C)(=O)=O)c2c1 | 121.922% | 129.269% | 92.2028% | 99.133% | 150.252% | 117.742%
10 | COc1cc(C#N)ccc1S(=O)(=O)Nc1ccc2c(c1)cc(C)c(=O)n2C | 94.9001% | 111.598% | 105.069% | 87.2253% | 96.9289% | 124.149%
11 | O=C(/C=C/N1C[C@H]2C[C@@H]1CN2c1ccccn1)c1ccccc1O | 122.112% | 121.159% | 104.919% | 81.7789% | 99.3831% | 109.392%
12 | Cc1cc(=O)n(C)c2cc(N3C(=O)CC[C@H](NS(=O)(=O)CC(C)C)[C@H]3c3ccc(Cl)cc3)ccc12 | 117.914% | 167.751% | 95.8197% | 121.413% | 108.181% | 166.434%
13 | CCCS(=O)(=O)c1nc(NC2CC2)cc(-c2ccc3c(ccn3C3CC(C)(C)NC(C)(C)C3)c2)n1 | 80.022% and 93.4216% | 88.9327% and 142.491% | 124.727% and 116.36% | 92.6394% and 115.077% | 91.7549% and 133.424% | 94.2313% and 119.463%
14 | CCN(C(=O)CO)[C@H]1CN(/C(=N\C#N)Nc2cccc(OC(F)F)c2)N=C1c1ccc(Cl)c(Cl)c1 | 100.328% | 102.729% | 106.236% | 108.187% | 98.7267% | 141.776%
15 | CC(=O)c1cc(-c2cc(C(=O)NC3CC3)ccc2C)c2ncccn12 | 95.4153% | 118.795% | 131.291% | 101.161% | 68.6867% | 121.421%
16 | Nc1ncnc2c1ccn2[C@@H]1O[C@H]([C@H](O)c2ccccc2)[C@@H](O)[C@H]1O | 22.7938% | 108.338% | 25.5953% | 72.0424% | 28.7794% | 179.519%

Row | SMILES | Cell Viability [1, 4] | Cell Viability [1, 5] | Cell Viability [2, 4] | Cell Viability [2, 5] | Cell Viability [3, 4] | Cell Viability [3, 5]
17 | Cl.Cl.c1ccc([C@@H]2C[C@H]2NC2CCNCC2)cc1 | 78.4875% | 97.0217% | 85.8382% | 107.738% | 42.8532% | 97.3617%
18 | CCCCNNC(=O)c1ccc(Br)cc1 | 113.204% | 110.004% | 96.2748% | 91.9269% | 131.97% | 114.511%
19 | COc1cc(Nc2ccnc3ccc(Br)cc23)cc(OC)c1OC | 11.1317% | 122.349% | 56.2839% | 83.5621% | 3.207% | 235.19%
20 | CN(C)CCCOc1ccc(-c2cc(NCCCn3cccn3)nc(S(C)(=O)=O)n2)cc1 | 126.468% | 129.443% | 139.487% | 89.5427% | 144.942% | 126.832%
21 | COc1cc(N(C)c2ccnc3ccc(C(F)(F)F)cc23)cc(OC)c1OC | 62.3452% | 117.147% | 95.9474% | 95.4836% | 76.7382% | 110.267%
22 | O=C(NC[C@H](O)CN1CCc2ccccc2C1)c1ccnc(NC2CCC2)c1 | 33.1368% | 110.399% | 42.6769% | 91.2933% | 43.0801% | 143.569%
23 | CNCCN1CCC(c2cc(CN(C)C(=O)c3cccc(Oc4ccccc4)c3)ccn2)CC1 | 83.6812% | 129.007% | 146.315% | 111.036% | 67.5507% | 133.473%
24 | COc1c(C)cc(NC(=O)c2nn(Cc3ccc(F)cc3)c3c2CN(C(=O)c2ccc[nH]2)C[C@]3(C)C(N)=O)cc1C | 66.5012% | 112.674% | 104.772% | 92.7757% | 107.405% | 95.1299%
25 | Cc1nnc2c3ccccc3c(N[C@@H](C)[C@H](c3ccccc3)N(C)C)nn12 | 95.7989% | 115.114% | 110.519% | 106.748% | 82.8594% | 127.368%
26 | C[C@H]1CC(=O)Nc2cc(C(=O)NCCC3CC3)ccc2N1C(=O)N1CC2CC2C1 (some centres not stated) | 115.835% | 132.849% | 144.576% | 93.1136% | 106.68% | 112.87%
27 | CCCCN(Cc1ccccc1)C(=O)c1ccc(S(=O)(=O)Nc2ccccc2)cc1 | 68.2046% | 126.816% | 91.6685% | 100.658% | 74.981% | 116.955%
28 | COc1cc(OC)cc(-c2noc(N3CCN(C)C4(CCN(c5ccnc(C)c5)CC4)C3)n2)c1 | 121.179% | 136.172% | 96.7615% | 90.1785% | 136.59% | 146.282%
29 | CNc1cc(Oc2cc(C(=O)Nc3cc(N4CCN(C)CC4)cc(C(F)(F)F)c3)ccc2C)ncn1 | 72.9479% | 75.3319% | 198.58% | 101.862% | 163.613% | 75.5289%
30 | CC1=C(C)C(=O)C(C(C)(C)CC(=O)N(CCCCSC[C@H]2O[C@@H](n3cnc4c(N)ncnc43)[C@@H]3OC(C)(C)O[C@@H]32)Cc2cccc(-c3ccc(Cl)cc3)c2)=C(C)C1=O | 82.0361% | 129.013% | 94.9972% | 94.497% | 98.0775% | 117.278%
31 | COc1cc(C(=O)N2CC[C@@H](O)[C@@H](N)C2)cc2nc(-c3cc4ccccc4n3CC3CC3)n(C)c12.Cl | 124.227% | 121.721% | 110.648% | 103.392% | 99.5485% | 114.018%
32 | CC1=C(C)C(=O)C(C(C)(C)CC(=O)N(CCCCSC[C@H]2O[C@@H](n3cnc4c(N)ncnc43)[C@H](O)[C@@H]2O)Cc2cccc(-c3ccc(Cl)cc3)c2)=C(C)C1=O | 117.447% | 138.552% | 65.9332% | 97.7144% | 100.369% | 114.813%

Reference: ChEMBL document CHEMBL5608141, “Identification of compartment-specific drug sensitivities in CRC organoid-stroma co-cultures” (2024)
